Laboratory results published in patent publication US20140322149A1, “COMPOUND USEFUL FOR TREATING CELLULITE” (SIGMA-TAU INDUSTRIE FARMACEUTICHE RIUNITE S.P.A., priority 2008, published 2014).

System: cellulite in the thigh
Experiment: Anticellulite activity, intradermal multiple injection in the thigh of female subjects
Assay type: in vivo, human
Conditions: for Irritation reactions: during treatment; for Irritation reactions / Reduction of the fatty layer thickness / Reduction of the thigh diameter / Skin firmness / Skin hydration / Surface smoothness / Subjective improvement: 50.0 mg in 2.5 mL intradermally by multiple injection; for Irritation reactions / Reduction of the fatty layer thickness / Reduction of the thigh diameter / Skin firmness / Skin hydration / Surface smoothness / Subjective improvement / Clinical grading: once per week; for Reduction of the fatty layer thickness / Reduction of the thigh diameter / Skin firmness / Skin hydration / Surface smoothness: end of treatment (week 6) vs base line; for Subjective improvement / Clinical grading: end of treatment (week 6); for Clinical grading: visual grading of degree of cellulite, scale 0-4, 50.0 mg in 2.5 mL intradermally; for Anticellulite activity (overall, in words): comparison among propionyl L-carnitine, acetyl L-carnitine and L-carnitine
Description: The effectiveness of intradermally administration of the product according to the invention was tested for its ability to reduce the appearance of cellulite in the thigh. A total of 54 female subjects ranging in age from 23 to 58 years of age were selected to evaluate the composition of the invention.
The subjects were selected based on their cellulite intensity in the thigh area having a bi-lateral symmetry. Subjects with grades 1 and 2 cellulite were chosen, as a 5-point grading scale was used to rate the cellulite severity of each subject. The scale ranged from 0 to 4, being 0=No cellulite; 1=Small bumps or depressions; 2=Striations and bumps; 3=Pronounced lumpiness of the skin and striations; 4=All of the above plus hard sub-surface nodules.
All subjects had the absence of any visible skin disease(s) which might be confused with a skin reaction from the test material and were in general good health with no known allergies, especially to cosmetic or toiletry products; had no evidence of acute or chronic disease; were not pregnant or lactating; were not on any diet or weight reduction program; and were not on any regular exercise program (immediately prior to or during the course of the study).
At baseline each subject received a visual examination conducted by a qualified technician and scored for the degree of cellulite. In the same day subjects were treated on the right and left thigh intradermally by multiple injection, (from 5 to 10 injections per thigh using a “Lebel needle” 4 mm×0.4 mm; 27 G). The treatment was repeated once per week for […] (week 0; 1; 2; 3; 4; and 5).
The degree of cellulite was evaluated according to the following scale: 0=No visible cellulite; 1=Very little visible cellulite, no dimpling; 2=Visible cellulite, evidence of shallow dimpling; 3=Easily visible cellulite, moderate to pronounced dimpling; 4=Extremely visible cellulite, heavy and deep dimpling.
The patients were divided in 3 groups and treated intradermally by multiple injection with a composition comprising:
Group A • Propionyl L-Carnitine: 50.0 mg; • Mannitol: 100.0 mg; • Sodium phosphate bibasic bi-hydrate: 24.0 mg; • Trometamine: 8.0 mg; • H2O: 2.5 mL (final volume);
Group B • Acetyl L-Carnitine: 50.0 mg; • Mannitol: 100.0 mg; • Sodium phosphate bibasic bi-hydrate: 24.0 mg; • Trometamine: 8.0 mg; • H2O: 2.5 mL (final volume); or
Group C • L-Carnitine: 50.0 mg; • Mannitol: 100.0 mg; • Sodium phosphate bibasic bi-hydrate: 24.0 mg; • Trometamine: 8.0 mg; • H2O: 2.5 mL (final volume).
Subjects were instructed to discontinue the use of their normal anti-cellulite products to avoid introducing any new products for treating cellulite during the study, and to not be on any diet or weight reduction program or on any regular exercise program immediately prior to or during the course of the study. Each subject was also instructed to keep a diary to document compliance.
After 7 days from the last treatment (week 6) the subjects returned to the hospital for a final visual evaluation.
The cellulite evaluation was made according the method described in Cosmetics & Toiletries, 61-70, June 1995, by comparison of the values before and after the treatment.

Structure (SMILES)	Irritation reactions	Reduction of the fatty layer thickness [%]	Reduction of the thigh diameter [%]	Skin firmness	Skin hydration	Surface smoothness	Subjective improvement	Clinical grading	Anticellulite activity (overall, in words) (summary of Table 1)	Effect on skin infrastructure (dermis of the skin) (summary of Table 1)	Anticellulite activity (overall, in words) (summary of Table 1, listed as compound of the invention)
CC(=O)O[C@H](CC(=O)[O-])C[N+](C)(C)C [Acetyl L-carnitine, Acetyl L-Carnitine]	0	−10	−2	+6%	+8%	+15%	+15%	+8%	inferior compared with that of propionyl L-carnitine	–	–
C[N+](C)(C)C[C@H](O)CC(=O)[O-] [L-carnitine, L-Carnitine]	–	−12	−3	+9%	+10%	+18%	+19%	+12%	inferior compared with that of propionyl L-carnitine	–	–
CCC(=O)O[C@H](CC(=O)[O-])C[N+](C)(C)C [Propionyl L-carnitine, Propionyl L-Carnitine]	0	−28	−11	+20%	+27%	+42%	+57%	+34%	effectively ameliorate the cellulite condition	improved skin infrastructure	significantly higher respect to the activity of L-carnitine or acetyl L-carnitine
